A word on the IC50: it is the concentration that inhibits the measured activity by half.

Experimental findings from article PMC10536063 (ACS Omega, 2023) are described below.

The target of one data set is EGFR kinase (Homo sapiens, UniProt P00533). The data set can be described thus: EGFR-TK kinase inhibitory assay. It counts as biochemical.
For another data set, the target named is CDK-2 kinase (Homo sapiens, UniProt P24941). Put plainly: CDK-2 luminescence kinase inhibitory assay. It is filed as biochemical.
The subject of data set [1] is MCF-10A (normal breast) cells. The data set can be described thus: MTT cytotoxicity bioassay against normal MCF-10A cells. The settings on record: for IC50: Homo sapiens, MCF-10A, 48 h, read-out: IC50 ± SD, MCF-10A; for cytotoxicity versus normal MCF-10A cells (in words): MTT. It counts as cell-based.
The subject of data set [2] is MCF-7 (breast cancer cells). Put plainly: MTT cytotoxicity bioassay against MCF-7. It is filed as cell-based, human. Particulars: read-out: IC50 ± SD, MCF-7, 48 h, mean ± SD, n = 3.

Chain of EGFR kinase (P00533 25-1210): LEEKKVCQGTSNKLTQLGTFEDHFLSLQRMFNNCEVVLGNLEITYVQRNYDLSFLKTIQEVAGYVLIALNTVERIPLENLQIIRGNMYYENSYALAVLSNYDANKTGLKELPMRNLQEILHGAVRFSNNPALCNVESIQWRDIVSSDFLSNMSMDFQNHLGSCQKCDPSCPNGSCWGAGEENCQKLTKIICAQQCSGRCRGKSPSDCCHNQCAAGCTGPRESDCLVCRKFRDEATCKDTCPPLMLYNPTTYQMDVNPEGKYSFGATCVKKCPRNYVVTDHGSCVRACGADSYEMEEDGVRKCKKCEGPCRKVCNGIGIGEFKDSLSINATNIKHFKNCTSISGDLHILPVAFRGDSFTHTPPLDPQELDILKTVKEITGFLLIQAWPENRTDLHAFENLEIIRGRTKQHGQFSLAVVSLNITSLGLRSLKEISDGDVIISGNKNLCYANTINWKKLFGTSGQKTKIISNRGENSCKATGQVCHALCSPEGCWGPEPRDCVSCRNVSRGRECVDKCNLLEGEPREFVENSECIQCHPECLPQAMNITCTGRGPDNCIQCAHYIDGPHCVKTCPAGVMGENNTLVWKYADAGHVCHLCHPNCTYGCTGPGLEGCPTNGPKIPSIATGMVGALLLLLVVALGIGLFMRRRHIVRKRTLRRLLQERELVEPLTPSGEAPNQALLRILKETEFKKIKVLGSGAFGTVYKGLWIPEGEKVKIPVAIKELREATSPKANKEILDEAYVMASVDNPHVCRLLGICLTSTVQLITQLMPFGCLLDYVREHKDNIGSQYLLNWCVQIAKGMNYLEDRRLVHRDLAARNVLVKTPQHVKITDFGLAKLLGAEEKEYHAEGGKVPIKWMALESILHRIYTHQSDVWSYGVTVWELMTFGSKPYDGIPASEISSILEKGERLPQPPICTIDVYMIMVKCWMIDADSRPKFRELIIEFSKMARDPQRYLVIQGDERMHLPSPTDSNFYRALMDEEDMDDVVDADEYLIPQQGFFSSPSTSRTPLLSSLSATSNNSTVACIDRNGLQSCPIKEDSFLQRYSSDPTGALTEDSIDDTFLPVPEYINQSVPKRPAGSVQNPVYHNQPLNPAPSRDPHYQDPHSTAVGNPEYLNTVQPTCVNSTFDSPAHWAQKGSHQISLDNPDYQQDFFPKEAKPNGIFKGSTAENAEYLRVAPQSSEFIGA

For the compound `O=C(c1ccc2ccccc2c1)c1cn(-c2ccccc2)nc1C1=Nn2c(nnc2-c2ccccc2)SC1` [Compound 4b, 3-Phenyl-6-(4-(2-naphthoyl)-1-phenyl-1H-pyrazol-3-yl)-7H-[1,2,4]triazolo[3,4-b][1,3,4]-thiadiazine], the half-maximal inhibitory concentration (IC50) was 0.0717 ± 0.0021 µM against EGFR kinase, 0.114 ± 0.0029 µM against CDK-2 kinase, at least 50 µM in data set [1] and 3.16 ± 0.29 µM in data set [2]. The “cytotoxicity versus normal MCF-10A cells (in words)” value in data set [1] is given as “safe”. `C#Cc1cccc(Nc2ncnc3cc(OCCOC)c(OCCOC)cc23)c1` [Erlotinib, reference compound]: the IC50 in data set [1] was at least 50 µM.

Regarding `O=C(c1ccc2ccccc2c1)c1cn(-c2ccccc2)nc1C1=Nn2c(nnc2SCc2ccccc2CSc2nnc3n2N=C(c2nn(-c4ccccc4)cc2C(=O)c2ccc4ccccc4c2)CS3)SC1` [Compound 10, 1,2-Bis((6-(4-(2-naphthoyl)-1-phenyl-1H-pyrazol-3-yl))-7H-[1,2,4]triazolo[3,4-b][1,3,4]-thiadiazin-3-ylthiomethyl)benzene], in data set [1], the half-inhibitory concentration (IC50) was determined as 31.2 ± 0.9 µM. Take `O=C(c1ccc2ccccc2c1)c1cn(-c2ccccc2)nc1C1=Nn2c(SCCSc3nnc4n3N=C(c3nn(-c5ccccc5)cc3C(=O)c3ccc5ccccc5c3)CS4)nnc2SC1` [Compound 8a, 1,2-Bis((6-(4-(2-naphthoyl)-1-phenyl-1H-pyrazol-3-yl))-7H-[1,2,4]triazolo[3,4-b][1,3,4]-thiadiazin-3-ylthio)ethane]: in data set [1], the concentration for half-maximal inhibition (IC50) was determined as 38.9 ± 0.89 µM. The same measure, in the same setting: in the case of `O=C(c1ccc2ccccc2c1)c1cn(-c2ccccc2)nc1C(=O)CBr` [Compound 2, 3-Bromoacetyl-4-(2-naphthoyl)-1-phenyl-1H-pyrazole] it was 37.5 ± 1.9 µM. As to `O=C(c1ccc2ccccc2c1)c1cn(-c2ccccc2)nc1C1=Nn2c(SCCCSc3nnc4n3N=C(c3nn(-c5ccccc5)cc3C(=O)c3ccc5ccccc5c3)CS4)nnc2SC1` [Compound 8b, 1,3-Bis((6-(4-(2-naphthoyl)-1-phenyl-1H-pyrazol-3-yl))-7H-[1,2,4]triazolo[3,4-b][1,3,4]-thiadiazin-3-ylthio)propane], the IC50 in data set [1] is 29.6 ± 0.8 µM.

On to `O=C(c1ccc2ccccc2c1)c1cn(-c2ccccc2)nc1C1=Nn2cnnc2SC1` [Compound 4a, 6-(4-(2-Naphthoyl)-1-phenyl-1H-pyrazol-3-yl)-7H-[1,2,4]triazolo[3,4-b][1,3,4]thiadiazine], for which the IC50 in data set [1] is at least 50 µM.

On to `O=C(c1ccc2ccccc2c1)c1cn(-c2ccccc2)nc1C1=Nn2c(S)nnc2SC1` [Compound 4c, 6-(4-(2-Naphthoyl)-1-phenyl-1H-pyrazol-3-yl)-7H-[1,2,4]triazolo[3,4-b][1,3,4]thiadiazin-3-thiol], for which the values for the IC50 (against EGFR kinase; on CDK-2 kinase; in data set [1]) were 0.0896 ± 0.0024 µM, 0.165 ± 0.00314 µM and 46.7 ± 1.7 µM, respectively. The “cytotoxicity versus normal MCF-10A cells (in words)” value in data set [1] is on record as “safe”.
